Test results as given in patent US12496304B2, “Selective glucocorticoid receptor modifiers for treating impaired skin wound healing” (AKRIBES BIOMEDICAL GMBH, priority 2019, dated 2025).
Where two headings read alike, the source gives them in different places.

Key:
[1] = test system: primary human dermal fibroblasts (HDF); assay: Fibroblast proliferation assay (2D) in the presence of wound exudate; assay type: cell-based; settings: for fibroblast proliferation (2D) with wound exudate: graded concentrations
Experimental: (§1) Primary human dermal fibroblasts (HDF) were purchased from CELLnTEC, Bern. They were routinely grown in Dulbecco's modified Eagle's medium (DMEM) containing 10% FCS, 2 mM glutamine, and 100 U/ml penicillin/100 μg/ml streptomycin. Media, antibiotics, and glutamine were bought from Lonza. The cells were used at passage 5-15. Cells were trypsinized and seeded at 2500 cells/well in 30 μl into the inner wells of 384-well plates in the absence or presence of graded compound concentrations with or without different dilutions of sterile-filtered WE in medium. For control samples, 30 μl medium was added instead of specific stimuli. The outer wells were loaded with sterile water. The cells were incubated for 72 hours at 37° C.
(§2) At the end of the incubation period, supernatants were removed for the determination of IL-1β, and the cells were fixed with 4% paraformaldehyde (Morphisto) for 15 minutes at room temperature and washed 3 times with PBS. A control plate was fixed after the overnight adherence of the cells (day 1) to determine the starting cell number.
Total cellular protein was determined as a measure of cell number by staining the fixed cells with sulforhodamine B (SRB, Sigma). A 0.4% SRB solution in 1% acetic acid was added to the wells for 30 minutes. The wells were then washed with 1% acetic acid until the wash solution remained colorless. After drying, the dye was eluted with 10 mM Tris-HCl, pH8.5, and absorbance was measured either at 550 or 492 nm for lower and higher cell densities, respectively. The average absorbance of the sample representing the day 1 starting cell number was subtracted from the absorbance values of the WE-treated cells.
All experiments were carried out in triplicate for each sample and concentration, and means±standard deviation (SD) were used for the evaluation of the experiment. Results are expressed as percentage of control values for unstimulated cells.

[2] = test system: human dermal fibroblast (HDF) cells; assay: Fibroblast-derived matrix formation (FDM) assay, 3D fibroblast culture; assay type: cell-based; settings: for formation of fibroblast-derived matrix (3D): WE from patient #92 (FIG. 12)
Experimental: Human dermal fibroblast (HDF) cells were seeded at 1250 cells/well on day −3 into 384-well tissue culture plates, which had been pre-coated for 1 hour at 37° C. with 0.2% gelatin solution (Sigma). When the cells reached confluence (=day 0), a matrix promoting supplement (vitamin C: 2-phospho-L-ascorbic acid trisodium salt, 100 μg/ml; Sigma) was added together with test samples containing TGF-β1 or graded concentrations of compounds −/+WE as described for the HDF proliferation assay. After 4 days, medium was replaced by fresh vitamin C—and stimulus—as well as compound-containing medium, maintaining the conditions initiated on day 0. TGF-β1 was included as a positive control to promote FDM formation. After a total incubation time of 7 to 8 days, FDM production was measured in fixed cultures via SRB staining and evaluated as described above. In some cases, the experiment was stopped and evaluated already on day 4.

[3] = target: T1, glucocorticoid receptor (Homo sapiens, UniProt P04150); settings: for localization of the glucocorticoid receptor: 45 minutes at 37° C.
T1 sequence (P04150 1-777): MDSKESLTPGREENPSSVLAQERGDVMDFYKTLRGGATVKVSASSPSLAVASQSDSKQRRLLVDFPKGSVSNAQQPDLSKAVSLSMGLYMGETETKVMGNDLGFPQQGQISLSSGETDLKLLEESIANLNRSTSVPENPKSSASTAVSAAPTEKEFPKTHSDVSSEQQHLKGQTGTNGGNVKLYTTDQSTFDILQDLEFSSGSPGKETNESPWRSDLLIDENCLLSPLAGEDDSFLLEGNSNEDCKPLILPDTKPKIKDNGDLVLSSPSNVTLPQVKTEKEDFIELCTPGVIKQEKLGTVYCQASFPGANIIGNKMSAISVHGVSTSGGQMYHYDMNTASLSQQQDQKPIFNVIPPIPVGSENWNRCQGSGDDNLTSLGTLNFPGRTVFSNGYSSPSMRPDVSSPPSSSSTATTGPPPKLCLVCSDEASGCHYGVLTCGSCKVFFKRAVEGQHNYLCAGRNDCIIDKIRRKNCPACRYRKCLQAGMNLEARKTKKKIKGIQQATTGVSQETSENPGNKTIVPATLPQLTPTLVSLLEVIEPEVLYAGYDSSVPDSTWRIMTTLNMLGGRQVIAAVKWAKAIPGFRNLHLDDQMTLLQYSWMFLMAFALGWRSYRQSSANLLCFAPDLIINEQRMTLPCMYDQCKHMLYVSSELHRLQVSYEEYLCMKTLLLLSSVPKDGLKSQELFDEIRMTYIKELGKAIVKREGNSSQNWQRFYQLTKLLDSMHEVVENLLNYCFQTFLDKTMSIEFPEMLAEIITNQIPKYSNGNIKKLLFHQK

[4] = test system: IL-1β; assay: IL-1β secretion into the supernatant in the fibroblast proliferation assay (ELISA); assay type: cell-based, human; settings: graded concentrations
Experimental: as §1, §2
IL-1β levels were determined with a commercial ELISA kit. The amount of IL-1β contained in the wound exudate added to the cells was subtracted from the total IL-B in the supernatants in order to determine the cytokine secreted by the cells.

[5] = test system: IL-8; assay: Primary human monocyte cytokine secretion assay (spontaneous IL-8); assay type: cell-based; settings: 16 hours (FIG. 16B)
Experimental: Primary human monocytes were prepared from peripheral blood mononuclear cells (PBMC). PBMC were isolated from buffy coats obtained from the Red Cross, Vienna, using LymphoPrep (Technoclone). 30 ml of buffy concentrate was diluted 1:2 with PBS, gently underlayered with 15 ml Lymphoprep in a 50 ml Falcon tube and centrifuged for 25 minutes at 1800 rpm at 21° C. The interphase was carefully transferred to a new Falcon tube and filled up to 50 ml with ice cold PBS. After another centrifugation step (10 minutes, 1200 rpm, 4° C.), the cell pellet was washed 3 times with PBS, resuspended in RPMI medium containing 20% FCS and 10% DMSO and frozen in liquid nitrogen. Monocytes were generated from frozen aliquots using positive selection with the CD14 Beads-Kit (Miltenyi) on an autoMACS-Sorter (Miltenyi) according to the manufacturer's instructions.
Cells were seeded at 8×10^5/ml in 50 μl/well of a 384-well plate and combined cells with graded concentrations of test compounds. After 16 hours, the supernatants were transferred to fresh plates and frozen at −20° C. for IL-8 analysis, using a commercial ELISA kit.

[6] = test system: IL-8; assay: U937 cell stimulation assay (LPS-induced IL-8); assay type: cell-based, human; settings: LPS 100 ng/ml, 16 hours (FIG. 16A)
Experimental: The human monocytic cell line U937 (ATCC CRL 1593) was routinely grown in RPMI_1640 supplemented by 10% FCS and 2 mM glutamine, and 100 U/ml penicillin/100 μg/ml streptomycin. Cells were seeded at 4×10^5/ml in 50 μl/well of a 384-well plate and combined cells with graded concentrations of test compounds and LPS at 100 ng/ml. After 16 hours, the supernatants were transferred to fresh plates and frozen at −20° C. for IL-8 analysis, using a commercial ELISA kit.

| Structure (SMILES) | formation of fibroblast-derived matrix (3D) [2] | localization of the glucocorticoid receptor ([3]; 0.1 nM) | localization of the glucocorticoid receptor ([3]; 1 nM) | localization of the glucocorticoid receptor ([3]; 100 nM) | localization of the glucocorticoid receptor ([3]; 10 nm) | fibroblast proliferation (2D) with wound exudate ([1]; WE-1 (FIG. 2A, 9A)) | fibroblast proliferation (2D) with wound exudate ([1]; WE-2 (FIG. 10A)) | fibroblast proliferation (2D) with wound exudate ([1]; WE-3 (FIG. 11A)) | IL-1β secretion into the supernatant ([4]; WE-1 (FIG. 2B, 9B)) | IL-1β secretion into the supernatant ([4]; WE-2 (FIG. 10B)) | IL-1β secretion into the supernatant ([4]; WE-3 (FIG. 11B)) | also measured |
| --- | --- | --- | --- | --- | --- | --- | --- | --- | --- | --- | --- | --- |
| C[C@H](NC(=O)C(C)(F)F)[C@H](Oc1ccc2c(cnn2-c2cccc(C(=O)NC3CCOC3)c2)c1)c1ccc2c(c1)OCCO2 (stereo partly drawn) [AZD7594, 3-(5-((1R,2S)-2-(2,2-difluoropropanamido)-1-(2,3-dihydrobenzo[b][1,4]dioxin-6-yl)propoxy)-1H-indazol-1-yl)-N-(tetrahydrofuran-3-yl)benzamide] | most active of the SEGRM tested in 3D culture | N/C | N | N | N |  |  |  |  |  |  | fibroblast proliferation, % proliferation of respective WE control ([1]; 1 μM, WE-02, WE control set to 100%): 196%; fibroblast proliferation, % proliferation of respective WE control ([1]; 1 μM, WE-03, WE control set to 100%): 161%; fibroblast proliferation, % proliferation of respective WE control ([1]; 1 μM, WE-04, WE control set to 100%): 1139%; fibroblast proliferation, % proliferation of respective WE control ([1]; 1 μM, WE-05, WE control set to 100%): 203%; fibroblast proliferation, % proliferation of respective WE control ([1]; 1 μM, WE-37, WE control set to 100%): 171%; fibroblast proliferation, % proliferation of respective WE control ([1]; 1 μM, WE-77, WE control set to 100%): 128%; efficacy on fibroblast proliferation compared with mapracorat ([1]; 1 μM, plurality of different wound exudates): comparable to the effect of mapracorat |
| CCOC[C@]12Cc3cnn(-c4ccc(F)cc4)c3C=C1CCN(S(=O)(=O)c1ccc(C(F)(F)F)cc1)C2 [CORT108297] |  |  | N/C | N | N |  |  |  |  |  |  |  |
| C[C@H]1C[C@H]2[C@@H]3CCC4=CC(=O)C=C[C@]4(C)[C@@]3(F)[C@@H](O)C[C@]2(C)[C@@]1(O)C(=O)CCl [Clobetasol] |  |  |  |  |  |  |  |  |  |  |  | glucocorticoid receptor localization, positive control [3]: shows nuclear staining |
| CC(C)(C[C@@](O)(Cc1cc2ccncc2[nH]1)C(F)(F)F)c1cc(F)ccc1O [HY14234] | found to be active | N/C | N | N | N | dose-dependent partial reversion of the wound exudate (WE)-induced inhibition of fibroblast proliferation | dose-dependently reversed inhibition of wound exudate (WE)-induced fibroblast proliferation | dose-dependently reversed inhibition of wound exudate (WE)-induced fibroblast proliferation | inhibited IL-1β secretion at the same concentrations | inhibition of IL-1β secretion was negligible | inhibited IL-1β secretion at the same concentrations | spontaneous IL-8 secretion in human monocytes [5]: inhibited both LPS-induced and spontaneous IL-8 secretion; LPS-induced IL-8 secretion in U937 cells [6]: inhibited both LPS-induced and spontaneous IL-8 secretion |
| Cc1noc(=O)c2ccc(NC(=O)C(O)(CC(C)(C)c3cccc4c3OCC4)C(F)(F)F)cc12 (centres unmarked) [ZK216348] | positive effect |  |  |  |  | dose-dependent partial reversion of the wound exudate (WE)-induced inhibition of fibroblast proliferation | dose-dependently reversed inhibition of wound exudate (WE)-induced fibroblast proliferation | dose-dependently reversed inhibition of wound exudate (WE)-induced fibroblast proliferation | inhibited IL-1β secretion at the same concentrations | inhibition of IL-1β secretion was negligible | inhibited IL-1β secretion at the same concentrations | rescue of fibroblasts in 2D culture from wound-exudate-induced inhibition of proliferation, compared with HY14234 ([1]; FIGS. 9A, 10A, 11A): less efficient |
| CC#C[C@]1(O)CC[C@H]2[C@@H]3CCC4=CC(=O)CCC4=C3[C@@H](c3ccc(N(C)C)cc3)C[C@@]21C [mifepristone] |  |  |  |  |  |  |  |  |  |  |  | effect on the matrix-promoting activity of BI-653048 ([2]; mifepristone 1 μM, WE-1 (FIG. 4)): completely abrogated |
